Reference: the supplement of paper PMC10307832

Experiments:
Test in all cases: relative viability (nuclei count vs DMSO), 5 days (fraction); higher = more cells survive
[1] = tested on: NCI-H1993
In short: (§1)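 A single step with final 0.05% Triton X-100, 1% formaldehyde and 1 ug/ml Hoechst fixed the cells and stained nuclei 5 days after treatment. Lung cancer cell lines in 1536-well plates had been treated by pin tool the day after seeding with one drug alone or a fixed anchor-drug dose plus five library-drug doses (not always all listed) in √10 steps, and nuclei were counted on 4× images. Relative viability is the ratio of nuclei in treated wells to nuclei in vehicle wells, taken as the median of duplicate plates.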

[2] = tested on: NCI-H1648
In short: as §1

[3] = tested on: ABC-1
In short: as §1

[4] = tested on: RERF-LC-KJ
In short: as §1

[5] = tested on: EKVX
In short: as §1

[6] = tested on: NCI-H2085
In short: as §1

[7] = tested on: NCI-H1703
In short: as §1

[8] = tested on: HCC-44
In short: as §1

[9] = tested on: NCI-H2126
In short: as §1

[10] = tested on: A549
In short: as §1

`Nc1ccn([C@@H]2O[C@H](CO)[C@@H](O)[C@@H]2O)c(=O)n1` [Cytarabine] + NC(=O)Nc1cc(-c2cccc(F)c2)sc1C(=O)N[C@H]1CCCNC1 [AZD7762] (partner 0.2 µM) gave a relative viability ([1]; first compound 0.005 µM) of 0.766, a relative viability ([1]; first compound 0.01581 µM) of 0.562 and a relative viability ([1]; first compound 0.05 µM) of 0.654. For the same compound, the relative viability ([1]; first compound 0.1581 µM) was 0.523, the relative viability ([1]; first compound 0.5 µM) was 0.523 and the relative viability ([2]; first compound 0.005 µM) was 0.647. The relative viability ([2]; first compound 0.01581 µM) was 0.882, the relative viability ([2]; first compound 0.05 µM) was 0.73 and the relative viability ([2]; first compound 0.1581 µM) was 0.527. It also gave a relative viability ([2]; first compound 0.5 µM) of 0.401, a relative viability ([3]; first compound 0.005 µM) of 0.626 and a relative viability ([3]; first compound 0.01581 µM) of 0.899. For the same compound, the relative viability ([3]; first compound 0.05 µM) was 0.745, the relative viability ([3]; first compound 0.1581 µM) was 0.744 and the relative viability ([3]; first compound 0.5 µM) was 0.666. For the same compound, the relative viability ([4]; first compound 0.005 µM) was 0.957, the relative viability ([4]; first compound 0.01581 µM) was 0.941 and the relative viability ([4]; first compound 0.05 µM) was 0.51. It also gave a relative viability ([4]; first compound 0.1581 µM) of 0.381, a relative viability ([4]; first compound 0.5 µM) of 0.322 and a relative viability ([5]; first compound 0.005 µM) of 0.697. It also gave a relative viability ([5]; first compound 0.01581 µM) of 0.676, a relative viability ([5]; first compound 0.05 µM) of 0.329 and a relative viability ([5]; first compound 0.5 µM) of 0.67. The relative viability ([6]; first compound 0.005 µM) was 0.997, the relative viability ([6]; first compound 0.01581 µM) was 0.997 and the relative viability ([6]; first compound 0.05 µM) was 0.956. For the same compound, the relative viability ([6]; first compound 0.1581 µM) was 0.694, the relative viability ([6]; first compound 0.5 µM) was 0.516 and the relative viability ([7]; first compound 0.005 µM) was 0.108. The relative viability ([7]; first compound 0.01581 µM) was 0.121, the relative viability ([7]; first compound 0.05 µM) was 0.103 and the relative viability ([7]; first compound 0.1581 µM) was 0.124. The relative viability ([7]; first compound 0.5 µM) was 0.13, the relative viability ([8]; first compound 0.005 µM) was 1.07 and the relative viability ([8]; first compound 0.01581 µM) was 0.916. It also gave a relative viability ([8]; first compound 0.05 µM) of 0.476, a relative viability ([8]; first compound 0.1581 µM) of 0.332 and a relative viability ([8]; first compound 0.5 µM) of 0.249. For the same compound, the relative viability ([9]; first compound 0.005 µM) was 0.965, the relative viability ([9]; first compound 0.01581 µM) was 0.936 and the relative viability ([9]; first compound 0.05 µM) was 0.808. For the same compound, the relative viability ([9]; first compound 0.1581 µM) was 0.361 and the relative viability ([9]; first compound 0.5 µM) was 0.267.
`Nc1ccn([C@@H]2O[C@H](CO)[C@@H](O)[C@@H]2O)c(=O)n1` [Cytarabine] + Nc1ncn([C@H]2C[C@H](O)[C@@H](CO)O2)c(=O)n1 [Decitabine] (partner 2 µM) gave a relative viability ([1]; first compound 0.005 µM) of 0.584, a relative viability ([1]; first compound 0.01581 µM) of 0.441 and a relative viability ([1]; first compound 0.05 µM) of 0.516. It also gave a relative viability ([1]; first compound 0.1581 µM) of 0.471, a relative viability ([1]; first compound 0.5 µM) of 0.206 and a relative viability ([10]; first compound 0.005 µM) of 0.215. For the same compound, the relative viability ([10]; first compound 0.01581 µM) was 0.115, the relative viability ([10]; first compound 0.05 µM) was 0.161 and the relative viability ([10]; first compound 0.1581 µM) was 0.0447. For the same compound, the relative viability ([10]; first compound 0.5 µM) was 0.0287, the relative viability ([2]; first compound 0.005 µM) was 0.479 and the relative viability ([2]; first compound 0.01581 µM) was 0.526. The relative viability ([2]; first compound 0.05 µM) was 0.502, the relative viability ([2]; first compound 0.1581 µM) was 0.35 and the relative viability ([2]; first compound 0.5 µM) was 0.362. It also gave a relative viability ([3]; first compound 0.005 µM) of 1.13, a relative viability ([3]; first compound 0.01581 µM) of 1.02 and a relative viability ([3]; first compound 0.05 µM) of 0.925. The relative viability ([3]; first compound 0.1581 µM) was 0.786, the relative viability ([3]; first compound 0.5 µM) was 0.611 and the relative viability ([4]; first compound 0.005 µM) was 0.677. The relative viability ([4]; first compound 0.01581 µM) was 0.568, the relative viability ([4]; first compound 0.05 µM) was 0.475 and the relative viability ([4]; first compound 0.1581 µM) was 0.342. The relative viability ([4]; first compound 0.5 µM) was 0.29, the relative viability ([5]; first compound 0.005 µM) was 0.485 and the relative viability ([5]; first compound 0.01581 µM) was 0.282. The relative viability ([5]; first compound 0.05 µM) was 0.259, the relative viability ([5]; first compound 0.5 µM) was 0.184 and the relative viability ([6]; first compound 0.005 µM) was 0.491. For the same compound, the relative viability ([6]; first compound 0.01581 µM) was 0.512, the relative viability ([6]; first compound 0.05 µM) was 0.518 and the relative viability ([6]; first compound 0.1581 µM) was 0.483. The relative viability ([6]; first compound 0.5 µM) was 0.559, the relative viability ([8]; first compound 0.005 µM) was 1.04 and the relative viability ([8]; first compound 0.01581 µM) was 0.941. The relative viability ([8]; first compound 0.05 µM) was 0.87, the relative viability ([8]; first compound 0.1581 µM) was 0.748 and the relative viability ([8]; first compound 0.5 µM) was 0.737. The relative viability ([9]; first compound 0.005 µM) was 0.597, the relative viability ([9]; first compound 0.01581 µM) was 0.518 and the relative viability ([9]; first compound 0.05 µM) was 0.514. The relative viability ([9]; first compound 0.1581 µM) was 0.457 and the relative viability ([9]; first compound 0.5 µM) was 0.429.
